Patent publication US20250122148A1, “HIGH-SELECTIVITY KCNQ4 POTASSIUM CHANNEL AGONIST, PREPARATION METHOD THEREFOR AND USE THEREOF” (SHANGHAI INSTITUTE OF MATERIA MEDICA, CHINESE ACADEMY OF …, priority 2022, published 2025)

What was measured:
[1] = molecular target: T1, human KCNQ2 (Homo sapiens, UniProt O43526); assay: Whole-cell voltage clamp of KCNQ2 channel current in transfected CHO-K1 cells; assay type: cell-based; set-up: key to KCNQ2 (IDrug/IControl 100 nM): IDrug/IControl current amplitude ratio at -10 mV; details: for KCNQ2 (IDrug/IControl 100 nM): activation efficacy, 100 nM compound, -10 mV test pulse, CHO-K1 cells, mean ± SEM
T1 construct: host or cells: CHO-K1 (Chinese hamster ovary), transient transfection with Lipofectamine 2000, co-transfected with GFP
Procedure: (§1) The cell line used in the electrophysiological experiments was the Chinese hamster ovary cell line (CHO-K1); KCNQ cDNA was transformed into E. coli, expressed in E. coli, and then confirmed by plasmid extraction and sequencing.
(§2) CHO-K1 cells (Cell Bank of Chinese Academy of Sciences), medium formula: 50/50 DMEM/F-12 (Gibco), supplemented with 10% fetal bovine serum (FBS) (Gibco, Australia) and 2 mM L-glutamine (Invitrogen). Transfection and expression of KCNQ channels: 24 hours before transfection, cells were digested with trypsin (Sigma, China) and spread in a 6-well plate. Lipofectamine2000™ reagent (Invitrogen) was used for transfection, and the experiment was carried out according to the procedures provided. Twenty-four hours after transfection, cells were digested and seeded onto poly-L-lysine (Sigma)-soaked slides. After co-transfected with GFP (green fluorescent protein), the transfected cells were determined under a fluorescence microscope (Olympus). The human KCNQ2 plasmid (NCBI: NM_172107.4) and human KCNQ4 plasmid (NCBI: NM_004700.4) used were synthesized by Beijing Genomics Institute and constructed in the pcDNA3.1(+) vector plasmid. KCNQ2 and KCNQ4 plasmids were confirmed by plasmid extraction and sequencing after transformation into E. coli DH5α.
(§3) Whole-cell voltage clamp experiments were carried out at room temperature (23˜25° C.), where Axopatch-700B amplifier (Molecular Devices, Sunnyvale, CA) and Digidata 1440A (Molecular Devices) as digital-to-analog converter were used, pClamp 10.0 software (Molecular Devices, Sunnyvale, CA) was used for signal acquisition, the signal was filtered at 2 kHz, the sampling frequency was 10 kHz. Series resistance compensation was used and set to 60%. Pipettes were pulled from Borosilicate glass capillaries (World Precision Instruments, Sarasota, FL), and the resistance of the pipettes filled with an intracellular fluid was 3-5 MΩ. The perfusion drug delivery system was BPS-8 (ALA Scientific Instruments, Westburg, NY) with a speed of approximately 1 mL/min.
(§4) Intracellular fluid formulation for electrophysiological experiments: 145 mM KCl, 1 mM MgCl2, 5 mM EGTA, 10 mM HEPES, 5 mM MgATP (adjusted to pH=7.3 with KOH).
(§5) Extracellular fluid formulation for electrophysiological experiments: 140 mM NaCl, 5 mM KCl, 2 mM CaCl2), 1.5 mM MgCl2, 10 mM HEPES, 10 mM glucose (adjusted to pH=7.4 with NaOH).
(§6) To record the whole-cell currents of KCNQ2 and KCNQ4 channels, the cells were clamped at a holding potential of −120 mV, and then depolarized to −10 mV for a duration of 1500 ms, and the stimulation frequency was 0.1 Hz. The current amplitudes at the −10 mV test pulse before (IControl) and after (IDrug) the perfusion of the compounds were collected to determine the activation efficacy (IDrug/IControl).
(§7) A certain mass of the compound was weighed and dissolved in DMSO to prepare a 20 mM DMSO stock solution which was frozen and stored at −20° C. until use. […] This kind of concentration of DMSO has no effect on the detected KCNQ channel current. For example, to prepare 100 nM and 1 μM compound solutions, the gradient dilution method was as follows: 5 μL DMSO stock solution was first pipetted and added to 10 mL of extracellular fluid, and was dissolved evenly to obtain a 10 μM compound solution; then 1 mL of 10 μM compound solution was pipetted and added to 9 mL of extracellular fluid, dissolved evenly to obtain a 1 μM compound solution; then 1 mL of 1 μM compound was pipetted and added to 9 mL of extracellular fluid, dissolved evenly to obtain a 100 nM compound solution.
(§8) Data collection, analysis and processing were performed using pClamp10 (Molecular Devices, Sunnyvale, CA), GraphPad Prism 5 (GraphPad Software, San Diego, CA) and Excel (Microsoft Corporation) software. All data are expressed as mean±standard error. (Mean±SEM), significance analysis was performed using unpaired student's t-test. When P<0.05, the difference between the two groups was considered statistically significant. […]

[2] = molecular target: T2, human KCNQ4 (Homo sapiens, UniProt P56696); assay: Whole-cell voltage clamp of KCNQ4 channel current in transfected CHO-K1 cells; assay type: cell-based; set-up: key to KCNQ4 (IDrug/IControl 100 nM): IDrug/IControl current amplitude ratio at -10 mV; details: for KCNQ4 (IDrug/IControl 100 nM): activation efficacy, 100 nM compound, -10 mV test pulse, CHO-K1 cells, mean ± SEM
T2 construct: host or cells: CHO-K1 (Chinese hamster ovary), transient transfection with Lipofectamine 2000, co-transfected with GFP
Procedure: as §1, §2, §3, §4, §5, §6, §7, §8

[3] = in vitro electrophysiological experiments

Structure (SMILES)	KCNQ2 (IDrug/IControl 100 nM) [1]	KCNQ4 (IDrug/IControl 100 nM) [2]	KCNQ2 agonistic activity (in words) [1, 3]	KCNQ4 agonistic activity (in words) [2, 3]
C#CCN(Cc1cccc(F)c1)c1ccc(NC(=O)OC(C)(C)C)cc1 [Compound K33]	1.06 ± 0.03	3.00 ± 0.18		
C#CCN(Cc1ccc(F)cc1)c1ccc(NC(=O)OC(C)(C)C)cc1 [Compound K31]	1.07 ± 0.04	3.06 ± 0.61	lost KCNQ2 agonistic activity	still had good KCNQ4 agonistic activity
C#CCN(Cc1ccc(Cl)cc1)c1ccc(NC(=O)OC(C)(C)C)cc1 [Compound K35]	0.98 ± 0.03	3.30 ± 0.62		
C#CCN(Cc1ccccc1F)c1ccc(NC(=O)OC(C)(C)C)cc1 [Compound K32]	1.05 ± 0.02	2.50 ± 0.28		
C#CCN(Cc1ccc(C(C)(C)C)cc1)c1ccc(NC(=O)OC(C)(C)C)cc1 [Compound K34]	1.07 ± 0.04	4.40 ± 0.62		

The remaining lines, values ahead:

KCNQ2 (IDrug/IControl 100 nM) [1]	KCNQ4 (IDrug/IControl 100 nM) [2]	KCNQ2 agonistic activity (in words) [1, 3]	KCNQ4 agonistic activity (in words) [2, 3]	Structure (SMILES)
0.97 ± 0.02	1.26 ± 0.16			C#CCN(Cc1ccc(F)c(C#N)c1)c1ccc(NC(=O)OC(C)(C)C)cc1 [Compound K40]
1.02 ± 0.04	3.28 ± 0.21			C#CCN(Cc1ccc(I)cc1)c1ccc(NC(=O)OC(C)(C)C)cc1 [Compound K37]
1.05 ± 0.03	3.50 ± 0.28			C#CCN(Cc1ccc(Br)cc1)c1ccc(NC(=O)OC(C)(C)C)cc1 [Compound K36]
1.10 ± 0.02	1.46 ± 0.02			C#CCN(Cc1ccc(F)c(F)c1)c1ccc(NC(=O)OC(C)(C)C)cc1 [Compound K39]
0.98 ± 0.00	2.72 ± 0.38			C#CCN(Cc1ccc(Br)c(F)c1)c1ccc(NC(=O)OC(C)(C)C)cc1 [Compound K43]
1.02 ± 0.02	1.35 ± 0.08			C#CCN(Cc1ccc(F)c([N+](=O)[O-])c1)c1ccc(NC(=O)OC(C)(C)C)cc1 [Compound K42]
1.03 ± 0.02	1.69 ± 0.19			C#CCN(Cc1ccc(F)c(C(F)(F)F)c1)c1ccc(NC(=O)OC(C)(C)C)cc1 [Compound K41]
0.96 ± 0.01	1.66 ± 0.19			C#CCN(Cc1ccc([N+](=O)[O-])cc1)c1ccc(NC(=O)OC(C)(C)C)cc1 [Compound K38]
